Test results as given in ChEMBL document CHEMBL1671711, “Serum and cerebrospinal fluid levels of colistin in pediatric patients” (Antimicrob Agents Chemother, 2010).

Legend:
Acinetobacter baumannii = assay: Antimicrobial activity against Acinetobacter baumannii; assay type: functional
Klebsiella pneumoniae = assay: Antimicrobial activity against Klebsiella pneumoniae; assay type: functional, organism-based
[1] = system: Stenotrophomonas maltophilia; assay: Antimicrobial activity against Stenotrophomonas maltophilia; assay type: functional, organism-based

Measured: MIC

COLISTIN
< 0.5 µg/mL: Acinetobacter baumannii | Klebsiella pneumoniae | [1]
